The values below come from US20260258064A1 (SIRONAX LTD., priority 2023, published 2026).

A value given as a limit tells only on which side of the number the result lay.

The target in this assay is T1, SARM1 (50-724) (Homo sapiens, UniProt Q6SZW1).
T1 construct: Purified SARM1 (50-724) with a final concentration of 2 nM was pre-incubated with a test compound
T1 sequence (Q6SZW1 50-724): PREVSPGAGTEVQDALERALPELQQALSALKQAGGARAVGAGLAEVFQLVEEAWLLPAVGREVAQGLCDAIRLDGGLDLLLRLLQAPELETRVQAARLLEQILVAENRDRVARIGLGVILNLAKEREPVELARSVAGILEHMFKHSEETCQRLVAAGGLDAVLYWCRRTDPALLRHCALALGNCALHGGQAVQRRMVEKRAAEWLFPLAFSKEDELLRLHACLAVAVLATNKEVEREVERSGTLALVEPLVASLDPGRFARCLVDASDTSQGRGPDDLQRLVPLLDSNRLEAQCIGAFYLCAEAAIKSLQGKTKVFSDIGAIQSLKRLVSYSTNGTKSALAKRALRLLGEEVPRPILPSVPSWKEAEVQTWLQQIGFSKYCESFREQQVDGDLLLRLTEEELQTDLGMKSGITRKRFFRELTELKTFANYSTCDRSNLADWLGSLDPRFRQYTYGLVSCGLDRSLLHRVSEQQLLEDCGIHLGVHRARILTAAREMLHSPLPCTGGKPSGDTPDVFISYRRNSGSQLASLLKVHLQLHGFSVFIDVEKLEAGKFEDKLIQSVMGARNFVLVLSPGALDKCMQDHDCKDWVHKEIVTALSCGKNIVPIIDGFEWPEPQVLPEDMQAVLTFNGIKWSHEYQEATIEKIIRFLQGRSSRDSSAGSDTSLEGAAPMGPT
The experiment in a line: SARM1 (50-724) enzymatic assay (LC-MS/MS). The assay is classed as biochemical. As to conditions: Purified SARM1 (50-724) 2 nM, NMN as activator, NAD+ as substrate, 1 h at room temperature, read-out: IC50 (SARM1 inhibitory activity). The gist of the method: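 Human SARM1 (50-724), 2 nM, pre-incubated 15 min at room temperature with compound in Dulbecco's PBS. Reaction started with 200 µM NMN (activator) plus […] NAD^+ substrate, run 1 h at room temperature, quenched with 70% acetonitrile. Turnover quantified by LC-MS/MS; IC50 reported.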
One may read the IC50 as the concentration that gives 50% inhibition. Turning to `O=c1[nH]ccc(-c2cccc(Cl)c2Cl)c1-c1nc2cc(C(F)(F)F)ccc2[nH]1` [Example 35], the IC50 fell in the range of 100 to 500 nM.

For `O=c1ccc(-c2cccc(Cl)c2Cl)c(-c2nc3cc(C(F)(F)F)ccc3[nH]2)[nH]1` [Example 37], the IC50 is > 1000 nM.

As for `FC(F)(F)c1ccc2[nH]c(-c3cncnc3-c3cccc(Cl)c3Cl)nc2c1` [Example 38], the IC50 lay in the range of 100 to 500 nM.

In the case of `Cn1ncc(-c2cccc(Cl)c2Cl)c1-c1nc2cc(C(F)(F)F)ccc2[nH]1` [Example 39], the IC50 is > 1000 nM.

In the case of `O=c1cc(-c2nc3cc(C(F)(F)F)ccc3[nH]2)c(-c2cccc(Cl)c2Cl)c[nH]1` [Example 40, 5-(2,3-dichlorophenyl)-4-[5-(trifluoromethyl)-1H-benzimidazol-2-yl]-1H-pyridin-2-one], the IC50 was ≤ 100 nM.

Consider `FC(F)(F)c1ccc2[nH]c(-c3scnc3-c3cccc(Cl)c3Cl)nc2c1` [Example 42], for which the 50% inhibitory concentration (IC50) was 500 to 1000 nM.

On to `FC(F)(F)c1ccc2[nH]c(-c3n[nH]cc3-c3cccc(Cl)c3Cl)nc2c1` [Example 43], for which the half-inhibitory concentration (IC50) is 500 to 1000 nM.

For the molecule `FC(F)(F)c1ccc2[nH]c(-c3cnncc3-c3cccc(Cl)c3Cl)nc2c1` [Example 44], the IC50 was in the range of 100 to 500 nM.

As for `FC(F)(F)c1ccc2[nH]c(-c3cncn3-c3cccc(Cl)c3Cl)nc2c1` [Example 45, 2-(1-(2,3-dichlorophenyl)-1H-imidazol-5-yl)-5-(trifluoromethyl)-1H-benzo[d]imidazole], the IC50 was ≤ 100 nM.

Regarding `CS(=O)(=O)c1ccc2[nH]c(-c3nncn3-c3cccc(Cl)c3Cl)nc2c1` [Example 46, 2-(4-(2,3-dichlorophenyl)-4H-1,2,4-triazol-3-yl)-5-(methylsulfonyl)-1H-benzo[d]imidazole], the IC50 was in the range of 100 to 500 nM.

Turning to `N#Cc1c(-c2cnccc2-c2cccc(Cl)c2Cl)[nH]c2ccc(C(F)(F)F)cc12` [Example 47, 2-(4-(2,3-dichlorophenyl)pyridin-3-yl)-5-(trifluoromethyl)-1H-indole-3-carbonitrile], the concentration for half-maximal inhibition (IC50) is ≤ 100 nM.

On to `Cn1cc(-c2cccc(Cl)c2Cl)c(-c2nc3cc(C(F)(F)F)ccc3[nH]2)cc1=O` [Example 48], for which the IC50 was ≤ 100 nM.

Consider `N#Cc1c(Cl)ccc2[nH]c(-c3nncn3-c3cccc(Cl)c3Cl)nc12` [Example 50, 5-chloro-2-(4-(2,3-dichlorophenyl)-4H-1,2,4-triazol-3-yl)-1H-benzo[d]imidazole-4-carbonitrile], for which the IC50 was 100 to 500 nM.

Regarding `Cc1cc(-c2ccc3[nH]c(-c4nncn4-c4cccc(Cl)c4Cl)nc3c2)[nH]n1` [Example 51, 2-(4-(2,3-dichlorophenyl)-4H-1,2,4-triazol-3-yl)-5-(3-methyl-1H-pyrazol-5-yl)-1H-benzo[d]imidazole], the half-inhibitory concentration (IC50) is ≤ 100 nM.

As to `CS(=O)(=O)c1cccc(-n2cnnc2-c2nc3cc(C(F)(F)F)ccc3[nH]2)c1` [Example 52], the IC50 is > 1000 nM.

With `Cn1nc(-n2cnnc2-c2nc3cc(C(F)(F)F)ccc3[nH]2)c(Cl)c1Cl` [Example 53, 2-(4-(4,5-Dichloro-1-methyl-1H-pyrazol-3-yl)-4H-1,2,4-triazol-3-yl)-5-(trifluoromethyl)-1H-benzo[d]imidazole], the IC50 is ≤ 100 nM.

As to `O=c1nc(-c2nc3cc(C(F)(F)F)ccc3[nH]2)c(-c2cccc(Cl)c2Cl)c[nH]1` [Example 54], the IC50 lay within 100 to 500 nM.

As for `Clc1cccc(-n2cnnc2-c2nc3cc(C4COC4)ccc3[nH]2)c1Cl` [Example 55, 2-(4-(2,3-dichlorophenyl)-4H-1,2,4-triazol-3-yl)-5-(oxetan-3-yl)-1H-benzo[d]imidazole], the IC50 fell in the range of 100 to 500 nM.

In the case of `Clc1cccc(-n2cnnc2-c2nc3cc(-c4cnn[nH]4)ccc3[nH]2)c1Cl` [Example 56, 2-(4-(2,3-dichlorophenyl)-4H-1,2,4-triazol-3-yl)-5-(1H-1,2,3-triazol-5-yl)-1H-benzo[d]imidazole], the IC50 fell in the range of 100 to 500 nM.

Regarding `FC(F)(F)c1ccc2[nH]c(-c3nccn3-c3cccc(Cl)c3Cl)nc2c1` [Example 57], the IC50 lay within 100 to 500 nM.

For the molecule `Fc1cccc(-n2cnnc2-c2nc3cc(C(F)(F)F)ccc3[nH]2)c1Cl` [Example 59, 2-(4-(2-chloro-3-fluorophenyl)-4H-1,2,4-triazol-3-yl)-5-(trifluoromethyl)-1H-benzo[d]imidazole], the IC50 is ≤ 100 nM.

For the molecule `COc1ccc(-c2cccc(Cl)c2Cl)c(-c2nc3cc(C(F)(F)F)ccc3[nH]2)n1` [Example 60], the IC50 was > 1000 nM.

In the case of `FC(F)(F)c1ccc2[nH]c(-c3c[nH]nc3-c3cccc(Cl)c3Cl)nc2c1` [Example 61], the IC50 lay in the range of 500 to 1000 nM.

With `FC(F)(F)c1ccc2[nH]c(-c3nncn3-c3cccc4nccn34)nc2c1` [Example 62], the IC50 is > 1000 nM.

On to `Cn1nc(Cl)c(Cl)c1-n1cnnc1-c1nc2cc(C(F)(F)F)ccc2[nH]1` [Example 63], for which the concentration for half-maximal inhibition (IC50) was in the range of 100 to 500 nM.

For `O=c1cc(-c2nc3cc(C(F)(F)F)ccc3[nH]2)c(-c2cccc(Cl)c2Cl)cn1CCO` [Example 64], the 50% inhibitory concentration (IC50) was ≤ 100 nM.

As for `OCCOc1cc(-c2nc3cc(C(F)(F)F)ccc3[nH]2)c(-c2cccc(Cl)c2Cl)cn1` [Example 65], the IC50 is ≤ 100 nM.

For `Cc1ccnc(-n2cnnc2-c2nc3cc(C(F)(F)F)ccc3[nH]2)c1Cl` [Example 66], the IC50 is ≤ 100 nM.

On to `Cc1c(Cl)ccnc1-n1cnnc1-c1nc2cc(C(F)(F)F)ccc2[nH]1` [Example 67], for which the IC50 was ≤ 100 nM.

In the case of `Clc1cccc(-n2cnnc2-c2nc3cc(-c4ccn[nH]4)ccc3[nH]2)c1Cl` [Example 68, 2-(4-(2,3-dichlorophenyl)-4H-1,2,4-triazol-3-yl)-5-(1H-pyrazol-5-yl)-1H-benzo[d]imidazole], the IC50 was ≤ 100 nM.

For the molecule `FC(F)(F)c1ccc2[nH]c(-c3nncn3-c3cccn4ccnc34)nc2c1` [Example 70], the IC50 was > 1000 nM.

In the case of `Cc1nccc(-n2cnnc2-c2nc3cc(C(F)(F)F)ccc3[nH]2)c1Cl` [Example 71], the half-inhibitory concentration (IC50) was 100 to 500 nM.

For `CSc1c(Br)ccc2[nH]c(-c3nncn3-c3cccc(Cl)c3Cl)nc12` [Example 72, 5-bromo-2-(4-(2,3-dichlorophenyl)-4H-1,2,4-triazol-3-yl)-4-(methylthio)-1H-benzo[d]imidazole], the half-maximal inhibitory concentration (IC50) lay in the range of 100 to 500 nM.

In the case of `Clc1cccc(-n2cnnc2-c2nc3cc(-c4cncnc4)ccc3[nH]2)c1Cl` [Example 73, 2-(4-(2,3-dichlorophenyl)-4H-1,2,4-triazol-3-yl)-5-(pyrimidin-5-yl)-1H-benzo[d]imidazole], the IC50 fell in the range of 100 to 500 nM.

As to `Cc1cc(-c2ccc3[nH]c(-c4nncn4-c4cccc(Cl)c4Cl)nc3c2)n(C)n1` [Example 74, 2-(4-(2,3-dichlorophenyl)-4H-1,2,4-triazol-3-yl)-5-(1,3-dimethyl-1H-pyrazol-5-yl)-1H-benzo[d]imidazole], the IC50 is ≤ 100 nM.

For the molecule `Cn1cc(-c2ccccc2Cl)c(-c2nc3cc(C(F)(F)F)ccc3[nH]2)cc1=O` [Example 75], the IC50 is 100 to 500 nM.

`Cn1cc(-c2cccc(Cl)c2)c(-c2nc3cc(C(F)(F)F)ccc3[nH]2)cc1=O` [Example 76]: the IC50 was > 1000 nM.

Consider `Clc1cccc(-n2cnnc2-c2nc3cc(-c4cncs4)ccc3[nH]2)c1Cl` [Example 78, 5-(2-(4-(2,3-dichlorophenyl)-4H-1,2,4-triazol-3-yl)-1H-benzo[d]imidazol-5-yl)thiazole], for which the IC50 lay in the range of 100 to 500 nM.

For `Cn1cc(-c2ccc3[nH]c(-c4nncn4-c4cccc(Cl)c4Cl)nc3c2)cn1` [Example 79, 2-(4-(2,3-dichlorophenyl)-4H-1,2,4-triazol-3-yl)-5-(1-methyl-1H-pyrazol-4-yl)-1H-benzo[d]imidazole], the IC50 was in the range of 100 to 500 nM.

In the case of `Cc1cc(-c2ccc3[nH]c(-c4nncn4-c4cccc(Cl)c4Cl)nc3c2)sn1` [Example 80, 5-(2-(4-(2,3-dichlorophenyl)-4H-1,2,4-triazol-3-yl)-1H-benzo[d]imidazol-5-yl)-3-methylisothiazole], the IC50 lay within 100 to 500 nM.

Regarding `Cc1cnn(C)c1-c1ccc2[nH]c(-c3nncn3-c3cccc(Cl)c3Cl)nc2c1` [Example 81, 2-(4-(2,3-dichlorophenyl)-4H-1,2,4-triazol-3-yl)-5-(1,4-dimethyl-1H-pyrazol-5-yl)-1H-benzo[d]imidazole], the IC50 is 100 to 500 nM.

Turning to `Clc1cc(-c2ccc3[nH]c(-c4nncn4-c4cccc(Cl)c4Cl)nc3c2)[nH]n1` [Example 82, 5-(3-chloro-1H-pyrazol-5-yl)-2-(4-(2,3-dichlorophenyl)-4H-1,2,4-triazol-3-yl)-1H-benzo[d]imidazole], the 50% inhibitory concentration (IC50) is ≤ 100 nM.

Take `Cn1cc(-c2cccc(Cl)c2Cl)c(-c2nc3cc(C(C)(C)O)ccc3[nH]2)cc1=O` [Example 83, 5-(2,3-Dichlorophenyl)-4-(5-(2-hydroxypropan-2-yl)-1H-benzo[d]imidazol-2-yl)-1-methylpyridin-2 (1H)-one]: the IC50 is > 1000 nM.
